Laboratory results: patent US20060030603A1, “Novel aryl urea analogs and use thereof as antibacterial agents” (priority 2004, published 2006)
Converted amounts (≈) assume the structure as drawn. Where two headings read alike, the source gives them in different places. Each block holds one compound with its values, some of them ahead of it.

Tests used:
[1] = test system: S. aureus ATCC 13709; assay: MIC assay, S. aureus; format: cell-based
Protocol: (§1) In vitro structure/activity relationship (“SAR”) tests were performed according to the following procedure: MIC assays were carried out in a 150 μL volume in duplicate in 96-well clear flat-bottom plates. The bacterial suspension from an overnight culture growth in the appropriate medium was added to a solution of test compound in 0.5% DMSO in water. Final bacterial inoculum was approximate 10^3-10^4 CFU/well. The percentage growth of the bacteria in the test wells relative to that observed for a control well containing no compound was determined by measuring absorbance at 595 nm (A595) after 20-24 h at 37° C. […] The bacterial strains used for the assays include S. aureus ATCC 13709, S. pyogenes ATCC 49399, E. faecalis ATCC 29212, E. faecium ATCC 6569, E. coli ATCC 25922, K. pneumoniae ATCC 13383, P. vulgaris ATCC 8427, P. aeruginosa ATCC 25416. The results of the in vitro SAR tests are in Tables 1-3.

[2] = test system: S. pyogenes ATCC 49399; assay: MIC assay, S. pyogenes; format: cell-based
Protocol: as §1

[3] = test system: P. vulgaris ATCC 8427; assay: MIC assay, P. vulgaris; format: cell-based
Protocol: as §1

[4] = test system: P. aeruginosa ATCC 25416; assay: MIC assay, P. aeruginosa; format: cell-based
Protocol: as §1

[5] = test system: K. pneumoniae ATCC 13383; assay: MIC assay, K. pneumoniae; format: cell-based
Protocol: as §1

[6] = test system: E. faecium ATCC 6569; assay: MIC assay, E. faecium; format: cell-based
Protocol: as §1

[7] = log P; format: physicochemical
[8] = test system: E. faecalis ATCC 29212; assay: MIC assay, E. faecalis; format: cell-based
Protocol: as §1

[9] = test system: E. coli ATCC 25922; assay: MIC assay, E. coli; format: cell-based
Protocol: as §1

[10] = Table 1, thiourea/urea analogs, acetate salts
[11] = Table 2, benzylamino group modified analogs
[12] = Staphylococcus aureus, ATCC13709, Table 2, benzylamino group modified analogs, read-out: MIC S. aureus
[13] = Streptococcus pyogenes, ATCC49399; read-out: MIC S. pyogenes ATCC 49399
[14] = Proteus vulgaris, ATCC8427; read-out: MIC P. vulgaris ATCC 8427
[15] = Staphylococcus aureus, ATCC13709, Table 4, read-out: MIC S. aureus ATCC 13709
[16] = Pseudomonas aeruginosa, ATCC25416; read-out: MIC P. aeruginosa ATCC 25416
[17] = Klebsiella pneumoniae, ATCC13383; read-out: MIC K. pneumoniae ATCC 13383
[18] = Enterococcus faecium, ATCC6569; read-out: MIC E. faecium ATCC 6569
[19] = Enterococcus faecalis, ATCC29212; read-out: MIC E. faecalis ATCC 29212
[20] = Escherichia coli, ATCC25922; read-out: MIC E. coli ATCC 25922
[21] = Staphylococcus aureus, ATCC13709, read-out: MIC S. aureus

SMILES: CSc1ccccc1NC(=S)NCCCNCc1cc(Br)cc(Br)c1 [8d]
MIC S. aureus [1, 10]: 50 to 100 µM

SMILES: O=C(NCCCNCc1cc(F)cc(F)c1)Nc1ccc(C(F)(F)F)cc1 [12n]
MIC S. aureus [1, 11]: 50 to 100 µM

SMILES: CCOc1ccc(Br)cc1CNCCCNC(=O)Nc1ccc(C(F)(F)F)cc1 [12u]
MIC S. aureus [1, 11]: 6 to 12 µM

SMILES: S=C(NCCCNCc1cc(Br)cc(Br)c1)Nc1cccc(Cl)c1 [8g]
MIC S. aureus [1, 10]: 6 to 12 µM

SMILES: O=C(NCCCNCc1cc(Br)cc(Br)c1)Nc1ccc(OC(F)(F)F)cc1 [9g]
MIC S. aureus [1, 10]: 6 to 12 µM

SMILES: Fc1ccc(NC(=S)NCCCNCc2cc(Br)cc(Br)c2)c(F)c1F [8e]
MIC S. aureus [1, 10]: 6 to 12 µM

MIC [1, 12]: 3 to 6 µM (≈ 1.66 to 3.32 µg/mL)
SMILES: O=C(NCCCNCCCOc1ccc(Br)cc1Br)Nc1ccc(C(F)(F)F)cc1 [14a, 1-{3-[3-(2,4-Dibromo-phenoxy)-propylamino]-propyl}-3-(4-trifluoromethyl-phenyl)-urea]

SMILES: CN(C)c1ccc(CNCCCNC(=O)Nc2ccc(C(F)(F)F)cc2)cc1 [12j]
MIC S. aureus [1, 11]: 12 to 25 µM

SMILES: Fc1ccc(NC(=S)NCCCNCc2cc(Br)cc(Br)c2)cc1 [8l]
MIC S. aureus [1, 10]: 12 to 25 µM

MIC [2, 13]: 3 to 6 µM (≈ 1.22 to 2.44 µg/mL)
MIC [3, 14]: 12 to 25 µM (≈ 4.89 to 10.2 µg/mL)
MIC [1, 12]: 3 to 6 µM (≈ 1.22 to 2.44 µg/mL)
MIC [1, 15]: 3 to 6 µM (≈ 1.22 to 2.44 µg/mL)
MIC [4, 16]: > 100 µM
MIC [5, 17]: 3 to 6 µM (≈ 1.22 to 2.44 µg/mL)
MIC [6, 18]: 3 to 6 µM (≈ 1.22 to 2.44 µg/mL)
logP [7]: 4.94
MIC [8, 19]: 6 to 12 µM (≈ 2.44 to 4.89 µg/mL)
MIC [9, 20]: 6 to 12 µM (≈ 2.44 to 4.89 µg/mL)
SMILES: CC(C)(C)c1ccc(CNCCCNC(=O)Nc2ccc(C(F)(F)F)cc2)cc1 [12i, 1-[3-(4-tert-Butyl-benzylamino)-propyl]-3-(4-trifluoromethyl-phenyl)-urea]

SMILES: COc1cc(Br)cc(CNCCCNC(=O)Nc2ccc(C(F)(F)F)cc2)c1O [12t]
MIC S. aureus [1, 11]: 12 to 25 µM

SMILES: O=C(NCCCNCc1cc(C(F)(F)F)cc(C(F)(F)F)c1)Nc1ccc(C(F)(F)F)cc1 [12o]
MIC S. aureus [1, 11]: 50 to 100 µM

SMILES: O=C(NCCCNCc1cc(Br)cc(Br)c1)Nc1ccc(C(F)(F)F)cc1 [9d, 1-[3-(3,5-Dibromo-benzylamino)-propyl]-3-(4-trifluoromethyl-phenyl)-urea]
MIC [1, 21]: 3 to 6 µM (≈ 1.53 to 3.05 µg/mL)
MIC S. aureus [1, 11]: 3 to 6 µM

SMILES: CN(CCCNC(=O)Nc1ccc(C(F)(F)F)cc1)Cc1cc(Br)cc(Br)c1 [compound 13]
MIC ([1]; Table 2, benzylamino group modified analogs, read-out: MIC S. aureus): >100 µM

SMILES: O=C(NCCCNCc1cc(Br)cc(Br)c1)Nc1ccc(Cl)c(Cl)c1 [9f, 1-[3-(3,5-Dibromo-benzylamino)-propyl]-3-(3,4-dichloro-phenyl)-urea]
MIC ([2]; Streptococcus pyogenes, ATCC49399, read-out: MIC S. pyogenes ATCC 49399): 6 to 12 µM (≈ 3.06 to 6.12 µg/mL)
MIC ([3]; Proteus vulgaris, ATCC8427, read-out: MIC P. vulgaris ATCC 8427): 12 to 25 µM (≈ 6.12 to 12.8 µg/mL)
MIC [1, 21]: 3 to 6 µM (≈ 1.53 to 3.06 µg/mL)
MIC ([1]; Staphylococcus aureus, ATCC13709, read-out: MIC S. aureus ATCC 13709): 3 to 6 µM (≈ 1.53 to 3.06 µg/mL)
MIC ([4]; Pseudomonas aeruginosa, ATCC25416, read-out: MIC P. aeruginosa ATCC 25416): > 100 µM
MIC ([5]; Klebsiella pneumoniae, ATCC13383, read-out: MIC K. pneumoniae ATCC 13383): 6 to 12 µM (≈ 3.06 to 6.12 µg/mL)
MIC ([6]; Enterococcus faecium, ATCC6569, read-out: MIC E. faecium ATCC 6569): > 100 µM
logP [7]: 4.89
MIC ([8]; Enterococcus faecalis, ATCC29212, read-out: MIC E. faecalis ATCC 29212): 6 to 12 µM (≈ 3.06 to 6.12 µg/mL)
MIC ([9]; Escherichia coli, ATCC25922, read-out: MIC E. coli ATCC 25922): 12 to 25 µM (≈ 6.12 to 12.8 µg/mL)

SMILES: O=C(NCCCNCc1ccc(OC(F)(F)F)cc1)Nc1ccc(C(F)(F)F)cc1 [12d]
MIC S. aureus [1, 11]: 3 to 6 µM

SMILES: CSc1ccc(NC(=O)NCCCNCc2cc(Br)cc(Br)c2)cc1 [9e]
MIC S. aureus [1, 10]: 25 to 50 µM

SMILES: Fc1cccc(NC(=S)NCCCNCc2cc(Br)cc(Br)c2)c1 [8f]
MIC S. aureus [1, 10]: 12 to 25 µM

SMILES: O=C(NCCCNCc1ccc(Cl)c(Cl)c1)Nc1ccc(C(F)(F)F)cc1 [12q]
MIC S. aureus [1, 11]: 3 to 6 µM

SMILES: O=C(NCCCNCc1cccc(-c2ccccc2)c1)Nc1ccc(C(F)(F)F)cc1 [12c]
MIC S. aureus [1, 11]: 6 to 12 µM

SMILES: COc1cc(CNCCCNC(=O)Nc2ccc(C(F)(F)F)cc2)cc(OC)c1 [12p]
MIC S. aureus [1, 11]: 50 to 100 µM

MIC [2, 13]: 1.5 to 3 µM (≈ 0.506 to 1.01 µg/mL)
MIC [3, 14]: 12 to 25 µM (≈ 4.05 to 8.43 µg/mL)
MIC ([1]; Staphylococcus aureus, ATCC13709, Table 1, thiourea/urea analogs, acetate salts, read-out: MIC S. aureus): 3 to 6 µM
MIC [1, 15]: 3 to 6 µM (≈ 1.01 to 2.02 µg/mL)
MIC S. aureus [1, 11]: 3 to 6 µM
MIC [4, 16]: > 100 µM
MIC [5, 17]: > 100 µM
MIC [6, 18]: > 100 µM
MIC [8, 19]: 3 to 6 µM (≈ 1.01 to 2.02 µg/mL)
MIC [9, 20]: > 100 µM
SMILES: CC(=O)NC[C@H]1CN(c2ccc(N3CCOCC3)c(F)c2)C(=O)O1 [Linezolide, reference compound]

SMILES: Cc1ccc(NC(=S)NCCCNCc2cc(Br)cc(Br)c2)cc1 [8r]
MIC S. aureus [1, 10]: 12 to 25 µM

SMILES: COc1ccccc1-c1ccc(CNCCCNC(=O)Nc2ccc(C(F)(F)F)cc2)cc1 [12g]
MIC S. aureus [1, 11]: 6 to 12 µM
